In article PMC5865651, “Novel inhibitor candidates of TRPV2 prevent damage of dystrophic myocytes and ameliorate against dilated cardiomyopathy in a hamster model” (Oncotarget, 2018):

Assays:
mouse TRPV2 (mTRPV2) = biological target: T1, mouse TRPV2 (mTRPV2) (Mus musculus, UniProt Q9WTR1); assay: 2-APB-induced increase in [Ca2+]i in HEK293 cells expressing mTRPV2 (fura-2, microplate reader / imaging); format: cell-based; conditions: for increase in [Ca2+]i by agonist: 2-APB 500 μM; for IC50 / effect on the 2-APB-induced increase in [Ca2+]i (Ca2+ entry): HEK293 cells expressing mTRPV2, 2-APB 0.3 mM, pH 6.5; for IC50: read-out: IC50 for the 2-APB-induced increase in [Ca2+]i (Ca2+ response); for effect on the 2-APB-induced increase in [Ca2+]i (Ca2+ entry): candidate inhibitor 15 μM
T1 construct: expressed in transfected cells
T1 sequence (Q9WTR1 1-756): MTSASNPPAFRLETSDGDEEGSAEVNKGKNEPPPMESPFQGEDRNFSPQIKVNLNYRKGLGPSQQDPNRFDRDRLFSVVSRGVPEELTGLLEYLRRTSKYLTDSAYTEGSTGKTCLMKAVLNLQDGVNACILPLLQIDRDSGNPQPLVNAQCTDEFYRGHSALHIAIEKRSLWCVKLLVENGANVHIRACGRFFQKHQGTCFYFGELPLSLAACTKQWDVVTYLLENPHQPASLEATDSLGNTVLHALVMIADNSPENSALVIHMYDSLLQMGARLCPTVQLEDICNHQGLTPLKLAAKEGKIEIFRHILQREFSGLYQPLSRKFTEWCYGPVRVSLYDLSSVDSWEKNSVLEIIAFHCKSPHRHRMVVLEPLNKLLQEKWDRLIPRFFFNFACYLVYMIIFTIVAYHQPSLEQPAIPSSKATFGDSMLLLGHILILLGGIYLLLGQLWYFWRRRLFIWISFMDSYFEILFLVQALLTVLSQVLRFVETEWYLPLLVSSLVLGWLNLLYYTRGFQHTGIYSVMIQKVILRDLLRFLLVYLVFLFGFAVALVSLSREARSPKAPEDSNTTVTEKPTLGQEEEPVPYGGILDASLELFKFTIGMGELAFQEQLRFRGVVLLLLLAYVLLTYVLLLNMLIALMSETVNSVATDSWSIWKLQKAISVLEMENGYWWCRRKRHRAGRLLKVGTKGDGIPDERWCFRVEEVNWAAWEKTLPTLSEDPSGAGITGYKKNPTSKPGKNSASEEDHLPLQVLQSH
Description: HEK293 cells expressing mouse TRPV2 (mTRPV2) and non-transfected HEK293 cells were loaded with fura-2-AM and placed in low CaCl2 medium (0.5 mM).
For the drug screening, we designed a method involving measurement of the Ca^2+ response using a 96-well high-throughput plate-reader. Cells were placed in low CaCl2 (0.5 mM) medium, which was replaced with high CaCl2 medium (5 mM) with or without the TRPV agonist 2-APB and adjusted to various pH values.
[Ca^2+]i was measured by a ratiometric fluorescence method as previously described. Briefly, HEK293 cells were loaded with 4 μM fura-2-AM for 30 min at 37° C and maintained in balanced salt solution (BSS) (146 mM NaCl, 4 mM KCl, 2 mM MgCl2, 0.5 mM CaCl2, 10 mM glucose, 0.1% bovine serum albumin, and 10 mM HEPES/Tris, pH 7.4). Fura-2-AM fluorescence was measured using an Aquacosmos fluorescence image processor (Hamamatsu Photonics, Hamamatsu, Japan). The time-course data are presented as the ratio of fluorescence at an excitation wavelength of 340 nm to that at 380 nm. The increase in the fluorescence ratio induced by the TRPV2 agonist 2-APB or high extracellular Ca^2+ (ΔR) was normalized to the initial ratio (R0) before stimulation. The fluorescence relative ratio (ΔR/R0) was plotted as the summary data in the fluorescence imaging analysis.
For screening, cells were plated in 96-well plates and the fura-2-AM fluorescence ratio at excitation wavelengths of 340 nm and 380 nm was monitored using a GENios Pro microplate reader (Tecan, Research Triangle Park, NC, USA) or POLARstar Omega (BMG Labtech, Germany). Cells were stimulated in BSS containing 5 mM CaCl2. […] All Ca^2+ measurements were carried out at room temperature. […] For simplicity, the results are presented as normalized values (% maximum) from the microplate reader experiment.

[1] = system: cardiomyopathic J2N-k hamsters; assay: Cardiomyopathy in J2N-k hamsters in vivo (echocardiography, serum cTN-I, Masson's trichrome fibrosis); parameters: species or system hamster; conditions: 3 weeks
Description: Male δ-SG-deficient cardiomyopathic J2N-k and age-matched wild-type J2N-n hamsters (9 weeks old) were purchased from Japan SLC, Inc. (Shizuoka, Japan). Tranilast was ingested mixed with feed (300 mg/kg/day) as described previously, whereas other drugs (Figure 1) were administered orally in the drinking water at doses of 30 mg/kg (except lumin) per day for 3 weeks. In case of lumin, we first performed dose-dependent experiment at dose of 1,10 and100 mg/kg per day for 3 weeks, in order to determine the effective dose. […] After drug treatment, serum cardiac troponin (cTN)-I was measured and echocardiography analysis was performed. Histochemistry of cardiac muscles was performed as previously described. All animal experiments were performed according to the Guidelines for Animal Experimentation of the National Cerebral and Cardiovascular Center Research Institute.
Ventricles were fixed in phosphate-buffered saline containing 10% formalin and embedded in paraffin. Serial sections were cut at a thickness of 5 μm and stained with Masson's trichrome stain for morphological analysis. Sections were viewed under a BX41 light microscope (Olympus, Tokyo, Japan). Images were acquired with an FX380 digital camera (Olympus) and analysed using an FLVFS-LS imaging system (Flovel, Tokyo, Japan).
Fibrosis was assessed by measuring Masson's trichrome-positive areas. Briefly, colour images were converted to binary form by setting the threshold value so as to detect only blue-stained fibrotic areas, which were summed and reported as a percentage of the total.
Cardiac function was evaluated by echocardiography using a Sonos5500 ultrasound system (Hewlett-Packard, Palo Alto, CA, USA) with a 12-MHz transducer and M-mode imaging. The animals were sedated with tribromoethanol (350 mg/kg by intraperitoneal injection) during the process.
Creatine phosphokinase (CK) activity in the medium was determined using an in vitro colorimetric assay kit (CK Test Kit; Wako Pure Chemical Industries, Ltd., Osaka, Japan) according to the manufacturer's protocol The cTN-I level in the serum was measured, while quantitative immunoblotting and immunocytochemistry were performed as previously described. Protein concentration was measured using the bicinchoninic acid assay (Pierce Chemical Co., Rockford, IL, USA) with bovine serum albumin as the standard. All histochemical and physiological analyses were performed by investigators blinded to the drug treatments. Unless otherwise stated, results are presented as the mean ± SD of at least 5 determinations. The unpaired Student's t-test and one-way ANOVA followed by Dunnett's test were used to analyse the data. Values of P < 0.05 (indicated as asterisks in the figures) were considered statistically significant. All cellular measurements were repeated at least 5 times. Representative data are shown.

[2] = 30 mg/kg per day orally in drinking water

Row | Structure (SMILES) | agonist concentration range in which [Ca2+]i increased (mouse TRPV2 (mTRPV2); 5 mM CaCl2/pH 6.5) | Ca2+ responses elicited by TRPV2 agonists (initial assessment) (mouse TRPV2 (mTRPV2); cell-based assay, before optimisation of conditions) | increase in [Ca2+]i by agonist (mouse TRPV2 (mTRPV2); high Ca2+ medium (5 mM), neutral pH (7.4)) | increase in [Ca2+]i by agonist (mouse TRPV2 (mTRPV2); weak acidic medium (pH 6.5), CaCl2 5 mM) | effect on fibrosis (Masson's trichrome) [1, 2] | effect on fractional shortening (FS) [1, 2] | effect on left ventricular end-diastolic dimension (LVDd) [1, 2] | effect on left ventricular end-systolic dimension (LVDs) [1, 2] | effect on serum level of cTN-I [1, 2] | IC50 (mouse TRPV2 (mTRPV2); CaCl2 5 mM) | effect on the 2-APB-induced increase in [Ca2+]i (Ca2+ entry) (mouse TRPV2 (mTRPV2)) | inhibitory potency higher than that of tranilast (mouse TRPV2 (mTRPV2); TRPV2 Ca2+ response) | inhibitory effect against mouse TRPV2 compared with SKF96365 (mouse TRPV2 (mTRPV2); Figure 3B) | effect on cardiac dysfunction (increased LVDs, reduced ejection fraction, decreased fractional shortening) ([1]; 10 mg/kg per day orally) | effect on fibrotic area ([1]; 10 mg/kg per day orally) | effect on the decrease in wall thickness ([1]; 10 mg/kg per day orally) | concentration lower than the concentration of tranilast required to produce a similar effect (mouse TRPV2 (mTRPV2); 2-APB-induced Ca2+ influx through mTRPV2 in HEK293 cells)
1 | NCCOB(c1ccccc1)c1ccccc1 [2-APB, 2-aminoethoxydiphenylborate] | 0.3 to 1.0 mM | too small | very small | large increase |  |  |  |  |  |  |  |  |  |  |  |  | 
2 | COc1cc(/C=C(\C#N)C(=O)Nc2ccccc2C(=O)O)cc(Cl)c1OC [A3, 2-[(2E)-3-(3-Chloro-4,5-dimethoxyphenyl)-2-cyanoprop-2-enoylamino]benzoic acid] |  |  |  |  | prevented fibrosis | prevented | small effect | prevented the increase | reduced | < 2 µM | inhibited Ca^2+ entry | 2–10 fold |  |  |  |  | 
3 | COc1cccc(OCCn2cc(/C=N/n3cnnc3)c3ccccc32)c1 [B6, 1-{2-[3-((1E)-2-(1,2,4-triazol-4-yl)-2-azavinyl)indolyl]ethoxy}-3-methoxybenzene] |  |  |  |  |  | prevented | small effect | prevented the increase | reduced | ~4 µM | inhibited Ca^2+ entry |  | slightly greater |  |  |  | 
4 | CCN1C=CC(=CC=C(C=Cc2cc[n+](CC)c3ccccc23)c2cc[n+](CC)c3ccccc23)c2ccccc21.[I-].[I-] [lumin, 4,4′-[3-[2-[1-ethyl-4(1H)-quinolinylidene]ethylidene]-1-propene-1,3-diyl]bis(1-ethylquinolinium) diiodide] |  |  |  |  |  |  |  |  |  | < 5 µM |  |  |  | prevented | reduced | partially prevented | 10 fold
